From patent US20210317140A1, “Heterocyclic Compounds and Methods of Use” (MEDIVATION TECHNOLOGIES, INC, priority 2013, published 2021)

Tests used:
CD69+B220+ cells = experiment: B cell activation assay (IgD-stimulated splenocytes, CD69+B220+ cells by FACS); format: cell-based; conditions: IgD 3 μg/mL, 4 h; for CD69 @ 100 nM (% Inh): 100 nM compound; for IC50: Splenocyte
Method in brief: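 Mouse splenocytes (female, ~2 months), red cells lysed, at 10^6 cells/mL, pretreated 30 min at 37 °C with 100 nM compound, then anti-IgD 3 μg/mL for 4 h. Read as CD69+B220+ cells as percentage of live B220+ cells by flow cytometry.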

ITK = biological target: T1, ITK (Homo sapiens, UniProt Q08881); experiment: ITK kinase profiling (BTK protocol); format: biochemical; conditions: for ITK @ 0.3 μM (% Inh): 0.3 μM compound; for IC50: 10 dose IC50
T1 construct: purchased Reaction Biology Corporation
T1 sequence (Q08881 1-620): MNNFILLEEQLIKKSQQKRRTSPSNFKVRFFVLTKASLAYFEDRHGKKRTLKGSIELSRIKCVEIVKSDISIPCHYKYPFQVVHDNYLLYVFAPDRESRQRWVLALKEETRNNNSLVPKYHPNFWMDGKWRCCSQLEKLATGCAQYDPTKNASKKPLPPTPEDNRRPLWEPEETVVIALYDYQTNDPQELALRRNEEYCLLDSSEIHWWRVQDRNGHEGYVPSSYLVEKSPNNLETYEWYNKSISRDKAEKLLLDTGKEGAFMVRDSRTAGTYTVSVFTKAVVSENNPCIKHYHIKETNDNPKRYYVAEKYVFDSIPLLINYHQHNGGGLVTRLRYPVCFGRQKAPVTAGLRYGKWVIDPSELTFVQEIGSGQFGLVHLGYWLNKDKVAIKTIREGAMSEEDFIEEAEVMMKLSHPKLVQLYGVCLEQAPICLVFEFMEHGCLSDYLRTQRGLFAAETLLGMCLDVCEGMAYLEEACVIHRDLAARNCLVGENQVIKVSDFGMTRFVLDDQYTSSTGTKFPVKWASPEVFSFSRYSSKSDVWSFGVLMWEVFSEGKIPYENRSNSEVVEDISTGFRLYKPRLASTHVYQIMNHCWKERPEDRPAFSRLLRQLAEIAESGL
Procedure: BTK assay: In vitro profiling protein kinases was performed using the “HotSpot” assay platform. Briefly, specific kinase/substrate pairs along with required cofactors were prepared in reaction buffer. Compounds were prepared as 10 mM stock solutions in DMSO. Compounds were delivered into the reaction, followed 15-20 minutes later by addition of a mixture of ATP (Sigma, St. Louis Mo.) and ^33P ATP (Perkin Elmer, Waltham Mass.) to a final concentration of 10 μM. […] IC50 values and curve fits were obtained using Prism (GraphPad Software). Buffer Conditions: 20 mM Hepes (pH 7.5), 10 mM MgCl2, 1 mM EGTA, 0.02% Brij35, 0.02 mg/mL BSA, 0.1 mM Na3VO4, 2 mM DTT, 1% DMSO.

PI3Kβ = biological target: T2, PI3Kβ (Homo sapiens, UniProt P42338); experiment: PI3Kβ isoform profiling (PI3Kδ protocol); format: biochemical; conditions: for PI3Kβ @ 0.3 μM (% Inh): 0.3 μM compound; for IC50: 10 dose IC50
T2 construct: purchased Reaction Biology Corporation
From the text: PI3Kδ assay: The PIP3 product is detected by displacement of biotin-PIP3 from an energy transfer complex consisting of Europium labeled anti-GST monoclonal antibody, a GST-tagged pleckstrin homology (PH) domain, biotinylated PIP3 and Streptavidin-Allophycocyanin (APC). Excitation of Europium in the complex results in an energy transfer to the APC and a fluorescent emission at 665 nm. The PIP3 product formed by PI 3-Kinase(h) activity displaces biotin-PIP3 from the complex resulting in a loss of energy transfer and thus a decrease in signal. This is a 3-step reaction: First, the kinase reaction with PIP2 substrate is carried out in the presence of ATP (10 μM), and the reaction is quenched with stop Solution, and then finally detect by adding Detection Mixture followed by incubation (10 min). Reaction procedure: 1) Prepare substrate in freshly prepared Reaction Buffer. 2) Deliver kinase into the substrate solution and gently mix. 3) Deliver compounds in 100% DMSO (1 μM) into the kinase reaction mixture by Acoustic technology (Echo550; nanoliter range), incubate for 10 min at RT. 4) Deliver ATP into the reaction mixture to initiate the reaction. 5) Incubate for 30 min at 30° C. 6) Quench the reaction with Stop Solution. 7) Add Detection Mixture, and incubate for overnight. 8) Measure HTRF: Ex=320 nm, ratio of Em=615 nm and Em=665 nm. The emission ratio is converted into μM PIP3 production based on PIP3 standard curves. The nonlinear regression to obtain the standard curve and IC50 values are performed using Graphpad Prism software. Assay Buffer: HEPES 50 mM (pH7.0), NaN3 0.02%, BSA 0.01%, Orthovanadate 0.1 mM, 1% DMSO. Detection buffer: HEPES 10 mM (pH7.0), BSA 0.02%, KF 0.16 M, EDTA 4 mM. Substrate: 10 μM PIP2 substrate (PI(4,5)P2).
Compounds of the invention were profiled in a 10 dose IC50 panel against PI3Kα, PI3Kβ, and PI3Kγ kinases, provided by Reaction Biology Corporation, applied to the PI3Kδ protocol provided in Example B1.

BTK = biological target: T3, BTK (Homo sapiens, UniProt Q06187); experiment: BTK kinase assay (HotSpot, 33P ATP); format: biochemical; conditions: for BTK @ 0.01 μM (% Inh): 0.01 μM compound; for BTK @ 0.01 μM (% Inh) / BTK @ 0.1 μM (% Inh) / BTK @ 1 μM (% Inh): 10 μM ATP; for BTK @ 0.1 μM (% Inh): 0.1 μM compound; for IC50: 10 dose IC50, 10 μM ATP; for BTK @ 1 μM (% Inh): 1 μM compound
T3 construct: purchased Reaction Biology Corporation
Method in brief: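 In 20 mM Hepes (pH 7.5) with 10 mM MgCl2, 1 mM EGTA, 0.1 mM Na3VO4, 2 mM DTT, 0.02% Brij35, 0.02 mg/mL BSA and 1% DMSO, kinase and substrate were exposed to ten compound doses for 15–20 min.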

T2 sequence (P42338 whole entry, canonical isoform): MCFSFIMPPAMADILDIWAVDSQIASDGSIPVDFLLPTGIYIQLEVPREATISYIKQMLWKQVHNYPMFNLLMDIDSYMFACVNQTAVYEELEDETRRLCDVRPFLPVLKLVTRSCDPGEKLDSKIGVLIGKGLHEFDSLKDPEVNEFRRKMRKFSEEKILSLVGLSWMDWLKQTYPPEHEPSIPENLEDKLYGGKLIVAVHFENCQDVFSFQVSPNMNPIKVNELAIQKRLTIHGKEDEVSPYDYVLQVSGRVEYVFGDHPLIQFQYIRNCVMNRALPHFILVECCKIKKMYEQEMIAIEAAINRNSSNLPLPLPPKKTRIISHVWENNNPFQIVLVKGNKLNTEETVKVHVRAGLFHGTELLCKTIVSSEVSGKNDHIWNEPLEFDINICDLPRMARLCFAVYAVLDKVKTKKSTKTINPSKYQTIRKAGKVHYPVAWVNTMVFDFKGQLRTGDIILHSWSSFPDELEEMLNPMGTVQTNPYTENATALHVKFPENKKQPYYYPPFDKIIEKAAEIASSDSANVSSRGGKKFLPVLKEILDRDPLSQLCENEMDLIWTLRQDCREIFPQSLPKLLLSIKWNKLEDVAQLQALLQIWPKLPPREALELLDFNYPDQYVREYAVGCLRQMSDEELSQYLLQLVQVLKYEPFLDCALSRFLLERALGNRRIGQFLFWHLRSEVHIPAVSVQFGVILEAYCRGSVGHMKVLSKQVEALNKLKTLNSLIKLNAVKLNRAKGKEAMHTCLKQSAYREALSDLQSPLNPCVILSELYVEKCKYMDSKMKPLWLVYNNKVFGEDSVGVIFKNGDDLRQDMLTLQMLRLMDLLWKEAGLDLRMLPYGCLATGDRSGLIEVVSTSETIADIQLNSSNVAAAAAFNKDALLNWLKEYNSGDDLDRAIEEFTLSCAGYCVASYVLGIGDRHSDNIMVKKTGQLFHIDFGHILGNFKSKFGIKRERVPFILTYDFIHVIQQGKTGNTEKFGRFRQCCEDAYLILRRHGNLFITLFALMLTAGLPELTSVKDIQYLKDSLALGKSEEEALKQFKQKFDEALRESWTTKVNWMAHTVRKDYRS
T2 sequence (P27986 whole entry partner, canonical isoform): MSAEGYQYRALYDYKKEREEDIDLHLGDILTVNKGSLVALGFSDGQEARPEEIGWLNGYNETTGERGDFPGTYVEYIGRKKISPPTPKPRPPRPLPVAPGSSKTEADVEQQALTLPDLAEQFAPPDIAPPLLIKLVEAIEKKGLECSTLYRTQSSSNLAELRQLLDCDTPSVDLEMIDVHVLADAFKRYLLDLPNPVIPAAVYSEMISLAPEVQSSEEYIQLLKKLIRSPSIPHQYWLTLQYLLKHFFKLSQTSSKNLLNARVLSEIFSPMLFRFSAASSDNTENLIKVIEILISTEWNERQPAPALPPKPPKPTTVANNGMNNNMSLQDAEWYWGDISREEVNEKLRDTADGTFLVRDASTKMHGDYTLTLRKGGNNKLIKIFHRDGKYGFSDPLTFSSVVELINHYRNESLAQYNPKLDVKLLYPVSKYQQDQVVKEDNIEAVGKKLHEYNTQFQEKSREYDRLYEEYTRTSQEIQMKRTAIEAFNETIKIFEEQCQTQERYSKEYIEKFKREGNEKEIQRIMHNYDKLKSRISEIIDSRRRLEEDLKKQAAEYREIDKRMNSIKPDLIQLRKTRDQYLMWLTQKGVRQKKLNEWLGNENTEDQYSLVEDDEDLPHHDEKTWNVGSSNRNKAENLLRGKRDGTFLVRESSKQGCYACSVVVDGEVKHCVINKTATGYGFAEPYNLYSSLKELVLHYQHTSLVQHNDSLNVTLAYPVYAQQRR
T3 sequence (Q06187 whole entry): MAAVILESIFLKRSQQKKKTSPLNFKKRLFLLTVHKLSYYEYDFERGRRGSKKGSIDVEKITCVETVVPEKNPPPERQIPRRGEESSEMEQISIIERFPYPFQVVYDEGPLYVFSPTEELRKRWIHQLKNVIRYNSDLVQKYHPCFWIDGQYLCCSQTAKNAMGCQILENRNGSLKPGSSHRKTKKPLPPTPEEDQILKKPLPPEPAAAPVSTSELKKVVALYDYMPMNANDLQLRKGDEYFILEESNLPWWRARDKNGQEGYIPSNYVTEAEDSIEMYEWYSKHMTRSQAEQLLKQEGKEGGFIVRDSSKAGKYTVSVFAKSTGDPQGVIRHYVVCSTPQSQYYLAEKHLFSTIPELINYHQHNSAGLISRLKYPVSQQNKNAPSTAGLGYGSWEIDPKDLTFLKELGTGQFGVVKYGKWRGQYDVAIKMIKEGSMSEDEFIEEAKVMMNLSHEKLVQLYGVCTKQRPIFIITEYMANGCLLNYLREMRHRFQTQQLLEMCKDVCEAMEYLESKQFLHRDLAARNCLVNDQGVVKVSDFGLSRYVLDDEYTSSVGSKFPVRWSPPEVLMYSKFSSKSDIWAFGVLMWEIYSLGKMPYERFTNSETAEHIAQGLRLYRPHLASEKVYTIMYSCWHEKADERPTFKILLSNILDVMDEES

| ITK @ 0.3 μM (% Inh) (ITK) | PI3Kβ @ 0.3 μM (% Inh) (PI3Kβ) | BTK @ 0.01 μM (% Inh) (BTK) | BTK @ 0.1 μM (% Inh) (BTK) | IC50 (BTK) | BTK @ 1 μM (% Inh) (BTK) | IC50 (CD69+B220+ cells; Mus musculus) | IC50 (PI3Kβ) | IC50 (CD69+B220+ cells; mouse splenocytes) | ITK @ 0.3 μM (% Inh) (ITK; 0.3 µM) | PI3Kβ @ 0.3 μM (% Inh) (PI3Kβ; 0.3 µM) | Compound | CD69 @ 100 nM (% Inh) (CD69+B220+ cells; mouse splenocytes) | IC50 (ITK) | CD69 @ 100 nM (% Inh) (CD69+B220+ cells; mouse splenocytes, 0.1 µM) |
| --- | --- | --- | --- | --- | --- | --- | --- | --- | --- | --- | --- | --- | --- | --- |
| −3.49 % Inh | 50.12 % Inh | 55.15 % Inh | 91.79 % Inh | 2.5 nM |  |  |  |  |  |  | Nc1ncnc2c1c(-c1cc(O)c(F)c(Cl)c1)cn2C1Cc2ccccc2C1 [compound 110, 5-[4-amino-7-(2,3-dihydro-1H-inden-2-yl)-7H-pyrrolo[2,3-d]pyrimidin-5-yl]-3-chloro-2-fluorophenol] | −11.51 ± 15.89 (n = 3) % Inh |  |  |
| 8.82 % Inh | 27.87 % Inh |  | 90.244 % Inh | 13.5 nM | 98.64 % Inh |  |  |  |  |  | Nc1ncnc2c1c(-c1ccc(Cl)c(O)c1)nn2C1Cc2ccccc2C1 [Compound No. 56, 5-[4-amino-1-(2,3-dihydro-1H-inden-2-yl)-1H-pyrazolo[3,4-d]pyrimidin-3-yl]-2-chlorophenol] | 20.57 ± 19.79 (n = 9) % Inh |  |  |
| −2.77 % Inh | 41.93 % Inh | 78.34 % Inh | 94.7 % Inh | 2.47 nM |  |  |  |  |  |  | Nc1ncnc2c1c(-c1cc(O)c(F)c(F)c1)cn2C1Cc2ccccc2C1 [Compound No. 101, 5-[4-amino-7-(2,3-dihydro-1H-inden-2-yl)-7H-pyrrolo[2,3-d]pyrimidin-5-yl]-2,3-difluorophenol] | −12.35 ± 33.92 (n = 5) % Inh |  |  |
| 2.15 % Inh | 37.87 % Inh |  |  | 10.6 nM |  |  |  |  |  |  | Nc1ncnc2c1c(-c1ccc(F)c(O)c1)nn2C1CCc2ccccc2C1 (racemic) [Compound No. 26, 5-(4-amino-1-(1,2,3,4-tetrahydronaphthalen-2-yl)-1H-pyrazolo[3,4-d]pyrimidin-3-yl)-2-fluorophenol] |  |  |  |
| 6.31 % Inh | 32.34 % Inh | 64.36 % Inh | 93.12 % Inh | 12.1 nM |  |  |  |  |  |  | C=CC(=O)N1CC(n2nc(-c3cc(O)cc(F)c3)c3c(N)ncnc32)Cc2cc(C)ccc21 (single isomer, unassigned) [31b, 1-(3-(4-amino-3-(3-fluoro-5-hydroxyphenyl)-1H-pyrazolo[3,4-d]pyrimidin-1-yl)-6-methyl-3,4-dihydroquinolin-1(2H)-yl)prop-2-en-1-one] |  |  | −13.21 ± 4.55 (n = 3) % Inh |
| −9.43 % Inh | 68.12 % Inh | 12.09 % Inh | 50.43 % Inh | 80.1 nM |  |  |  |  |  |  | N#Cc1cc(-c2cn(C3Cc4ccccc4C3)c3ncnc(N)c23)cc(O)c1F [compound 115, 5-[4-amino-7-(2,3-dihydro-1H-inden-2-yl)-7H-pyrrolo[2,3-d]pyrimidin-5-yl]-2-fluoro-3-hydroxybenzonitrile] | 44.51 ± 5.23 (n = 3) % Inh |  |  |
| −5.59 % Inh | 67.67 % Inh |  | 0.67 % Inh | > 1000 nM | 9.91 % Inh |  |  | 191 ± 120 nM |  |  | Nc1ncnc2c1c(-c1cc(O)c(F)c(C(F)(F)F)c1)nn2C1Cc2ccccc2C1 [Compound No. 102, 5-[4-amino-1-(2,3-dihydro-1H-inden-2-yl)-1H-pyrazolo[3,4-d]pyrimidin-3-yl]-2-fluoro-3-(trifluoromethyl)phenol] | 81.06 ± 20.76 (n = 7) % Inh |  |  |
| 17.1 % Inh | 52.63 % Inh |  | 68.24 % Inh | 17.4 nM |  |  | 927 nM |  |  |  | C=CC(=O)N1CC(n2nc(-c3cc(O)cc(F)c3)c3c(N)ncnc32)Cc2cc(C)ccc21 (stereo not shown) [compound 31, 1-(3-(4-amino-3-(3-fluoro-5-hydroxyphenyl)-1H-pyrazolo[3,4-d]pyrimidin-1-yl)-6-methyl-3,4-dihydroquinolin-1(2H)-yl)prop-2-en-1-one] |  | > 100000 nM |  |
| −2.3 % Inh | 27.83 % Inh |  | 51.83 % Inh | 104 nM | 90.69 % Inh | 154 nM |  |  |  |  | Nc1ncnc2c1c(-c1cc(F)c3c(c1)NCCO3)nn2C1Cc2ccccc2C1 [Compound No. 84, 1-(2,3-dihydro-1H-inden-2-yl)-3-(8-fluoro-3,4-dihydro-2H-1,4-benzoxazin-6-yl)-1H-pyrazolo[3,4-d]pyrimidin-4-amine] | 47.61 ± 24.72 (n = 15) % Inh |  |  |
|  |  |  | 63.12 % Inh | 81.1 nM |  | 107 ± 26.2 nM |  |  | 4.58 % Inh | 55.06 % Inh | Nc1ncnc2c1c(-c1cc(O)cc(F)c1)nn2C1CCc2ccccc2C1 (single isomer, unassigned) [6a, 3-(4-amino-1-(1,2,3,4-tetrahydronaphthalen-2-yl)-1H-pyrazolo[3,4-d]pyrimidin-3-yl)-5-fluorophenol] |  |  | 64.71 ± 19.01 (n = 6) % Inh |
|  |  |  |  | 86.4 nM |  |  | 105 nM |  |  |  | Nc1ncnc2c1c(-c1cc(O)cc(F)c1)nn2C1CCc2ccccc2C1 (stereo not shown) [compound 6, 3-(4-amino-1-(1,2,3,4-tetrahydronaphthalen-2-yl)-1H-pyrazolo[3,4-d]pyrimidin-3-yl)-5-fluorophenol] |  | 16400 nM |  |

| Compound | ITK @ 0.3 μM (% Inh) (ITK) | PI3Kβ @ 0.3 μM (% Inh) (PI3Kβ) | BTK @ 0.01 μM (% Inh) (BTK) | BTK @ 0.1 μM (% Inh) (BTK) | IC50 (BTK) | BTK @ 1 μM (% Inh) (BTK) | IC50 (CD69+B220+ cells; Mus musculus) | IC50 (PI3Kβ) | IC50 (CD69+B220+ cells; mouse splenocytes) | ITK @ 0.3 μM (% Inh) (ITK; 0.3 µM) | PI3Kβ @ 0.3 μM (% Inh) (PI3Kβ; 0.3 µM) | CD69 @ 100 nM (% Inh) (CD69+B220+ cells; mouse splenocytes) | IC50 (ITK) | CD69 @ 100 nM (% Inh) (CD69+B220+ cells; mouse splenocytes, 0.1 µM) |
| --- | --- | --- | --- | --- | --- | --- | --- | --- | --- | --- | --- | --- | --- | --- |
| Nc1ncnc2c1c(-c1ccc(Br)c(O)c1)nn2C1Cc2ccccc2C1 [compound 2, 5-(4-amino-1-(2,3-dihydro-1H-inden-2-yl)-1H-pyrazolo[3,4-d]pyrimidin-3-yl)-2-bromophenol] |  |  |  | 78.45 % Inh |  |  |  |  |  |  |  | 22.52 ± 18.41 (n = 5) % Inh | > 100000 nM |  |
| Nc1ncnc2c1c(-c1cc(O)cc(F)c1)nn2C1Cc2ccccc2C1 [compound 3, 3-(4-amino-1-(2,3-dihydro-1H-inden-2-yl)-1H-pyrazolo[3,4-d]pyrimidin-3-yl)-5-fluorophenol] |  |  |  |  | 67.3 nM |  | 183 ± 172 nM | 90.8 nM |  |  |  | 77.66 ± 22.65 (n = 6) % Inh | 46900 nM |  |
